Results reported in publication PMC3217850, “BACE-1 inhibition prevents the γ-secretase inhibitor evoked Aβ rise in human neuroblastoma SH-SY5Y cells” (Journal of Biomedical Science, 2011).

Tests used:
[1] = tested on: SH-SY5Y APPwt cells; assay: Aβ40 secretion from SH-SY5Y APPwt cells, ELISA of culture medium; assay type: cell-based, human; details: for IC50: Homo sapiens, 24 h
Method: (§1) The human neuroblastoma cell line SH-SY5Y was purchased from European Collection of Cell Cultures (ECACC). Cells were grown in DMEM/Ham's F-12 (PAA), supplemented with 1% non-essential amino acids (PAA) and 10% Fetal Bovine Serum (PAA). Cells were maintained at 37°C in a humidified atmosphere containing 5% CO2.
(§2) SH-SY5Y cells were stably transfected with plasmids carrying human APPwt or APPswe gene. APP gene was purchased from Geneservice Ltd (clone sequence BC065529; clone MGC75167) and the APPswe mutation was generated using a QuikChange® Site-Directed Mutagenesis Kit (Stratagene). APPwt and APPswe genes were cloned into a mammalian expression vector pcDNA3.1 and the expression was under the control of CMV promotor. The cells were plated at the density of 6.25 × 10^4 cells/cm^2 in 6-well culture dishes (Sarstedt) and each well was transfected with 4 μg plasmid DNA. Lipofectamine™2000 (InVitrogen) was used as a transfection reagent according to manufacturer's instructions. The transfected cells were selected with 400 μg/ml G418 (PAA).
(§3) Cells were plated at a density of 6.25 × 10^4 cells/cm^2 in 96-well cell culture plates (TRP) for Aβ measurements with ELISA or in 6-well culture dishes (Sarstedt) for Western blot. The day after the plating of the cells, the cultures were treated with various concentrations of γ-secretase inhibitor LY450139 or the BACE inhibitor for 24 hours. Stock solutions of inhibitors were prepared in dimethyl-sulfoxide (DMSO). All cultures including the control cells received equal amounts of DMSO, the final concentration being 0.1%. All the results were from two to three separate experiments and the data presented as means ± SEM.
(§4) The secreted Aβ40 and Aβ42 peptides in cell culture media were measured using human amyloid β40 or β42 ELISA kits from Millipore. The absorbance was measured at 450 nm by Microplate reader (Molecular Devices). Data from inhibitor-treated cell cultures was expressed as a percent of untreated controls and the inhibition curves were analysed by non-linear regression using Graph Pad Prism.

[2] = tested on: SH-SY5Y APPswe cells; assay: Aβ40 secretion from SH-SY5Y APPswe cells, ELISA of culture medium; assay type: cell-based, human; details: for IC50: Homo sapiens, 24 h
Method: as §1, §2, §3, §4

[3] = tested on: SH-SY5Y APPswe cells; assay: Aβ42 secretion from SH-SY5Y APPswe cells, ELISA of culture medium; assay type: cell-based, human; details: 3 nM LY450139, SH-SY5Y APPswe
Method: as §1
as §2, with “The transfected cells were selected with 400 μg/ml G418 (PAA).” left out
as §4

[4] = tested on: SH-SY5Y APPwt cells; assay: Aβ42 secretion from SH-SY5Y APPwt cells, ELISA of culture medium; assay type: cell-based, human
Method: as §1
as §2, with “The transfected cells were selected with 400 μg/ml G418 (PAA).” left out
as §4

[5] = tested on: SH-SY5Y APPwt cells; assay: Western blot (6E10 antibody) of APP substrate in cell lysates; assay type: cell-based, human; details: 3, 30 or 300 nM LY450139, 24 h
Method: as §3
SH-SY5Y cells were lysed in buffer containing 50 mM Tris-HCl pH 8.0, 150 mM NaCl, 1% Triton X-100, 1 mM EDTA, 1 mM Na3VO4 and 1 complete protease inhibitor cocktail tablet (Roche Diagnostics)/10 ml buffer. The cells were incubated with lysis buffer for 10 minutes on ice before scraping the cells from the dishes. Cell lysates were centrifuged at 14 000 rpm for 15 minutes. The protein content in the supernatants was measured using Pierce® 660 nm Protein Assay kit. Samples, containing 20 μg protein, were resolved in 7% NuPAGE®Tris-Acetate gels (InVitrogen) using Tris-Acetate SDS running buffer (InVitrogen). […] Average density of the bands was measured in ChemiDoc™XRS (Bio-Rad) by using Quantity One software.

[6] = tested on: AD patients; design: method as in earlier work; details: phase III, AD patients ref 14; cited from earlier work
[7] = tested on: Aβ; design: method as in PMID 19360898; details: healthy volunteers ref 3; cited from earlier work
[8] = tested on: Aβ; design: method as in PMID 20363853; details: preclinically ref 13; cited from earlier work

CCc1cn2c3c(cc(C(=O)N[C@@H](Cc4ccccc4)[C@H](O)CNC4CC4)cc13)N(C)S(=O)(=O)CC2 [BACE inhibitor, N-[(1S,2R)-1-Benzyl-3-(cyclopropylamino)-2-hydroxypropyl]-7-ethyl-1-methyl-3,4-dihydro-1H-[1,2, 5]thiadiazepino[3,4,5-hi-]indole-9-carboxamide 2,2-Dioxide]
IC50 ([1]; BACE inhibitor alone, SH-SY5Y APPwt): 7 nM | concentration required to abolish the LY450139-evoked Aβ40 rise completely ([1]; SH-SY5Y APPwt): 30 nM | IC50 ([2]; BACE inhibitor alone, SH-SY5Y APPswe): 18 nM

CC(C)[C@H](O)C(=O)N[C@@H](C)C(=O)N[C@@H]1C(=O)N(C)CCc2ccccc21 [LY450139, (N)-((S)-2-hydroxy-3-methyl-butyryl)-1-(L-alaninyl)-(S)-amino-3-methyl-2,3,4,5-tetrahydro-1H-3-benzazepin-2-one dihydrate]
effect on secreted Aβ42 levels [3]: not affected | secreted Aβ42 levels increase compared to controls ([4]; 3 nM LY450139, SH-SY5Y APPwt): 70% | Aβ42 secretion after washout ([4]; 300 nM LY450139 24 h, then fresh medium 24 h, SH-SY5Y APPwt): returned to control levels | Aβ40 levels increase above baseline ([1]; 3 nM LY450139, 24 h, SH-SY5Y APPwt): 60% | effect on basal Aβ40 levels ([1]; 30 nM LY450139 per se, SH-SY5Y APPwt): does not affect basal Aβ40 levels | reduction of Aβ40 secretion compared to control ([1]; 300 nM LY450139, 24 h, SH-SY5Y APPwt): 80% | fold less potent at inhibiting Aβ40 secretion from APPwt cells compared to APPswe cells ([1]; APPwt vs APPswe IC50): ~ 5 fold | IC50 ([1]; SH-SY5Y APPwt, inhibitory phase at > 30 nM, approximate): ~90 nM | Aβ40 production 2 - 6 hours after washout ([1]; LY450139 pre-treated vs control cells, data not shown): did not differ | Aβ40 levels increase with 3 nM LY450139 in second 24 h ([1]; after 300 nM LY450139 for first 24 h, compared to cells given fresh medium in second 24 h, SH-SY5Y APPwt): 60% | Aβ40 secretion during 24 h after washout ([1]; pre-treated 300 nM LY450139 24 h, then fresh medium 24 h, SH-SY5Y APPwt): did not differ from control cells | substrate (APP bands, 6E10) level [5]: accumulation of substrate | cognitive symptoms versus placebo [6]: fared worse than placebo-treated controls | effect on Aβ levels in the cerebrospinal fluid [7]: lower Aβ levels | effect on Aβ40 secretion per se ([2]; 3 nM LY450139, SH-SY5Y APPswe): does not affect Aβ40-secretion per se | remaining Aβ40 secretion ([2]; 30 nM LY450139, SH-SY5Y APPswe): 20-30% | IC50 ([2]; SH-SY5Y APPswe, monophasic): 18 nM | Aβ40 levels with 3 nM LY450139 in second 24 h ([2]; after 300 nM LY450139 for first 24 h, SH-SY5Y APPswe): did not lead to increased Aβ40 levels

CCC[C@H](N[C@H]1CCc2cc(F)cc(F)c2C1)C(=O)Nc1cn(C(C)(C)CNCC(C)(C)C)cn1 [PF-3084014]
Aβ rebound/rise attribute [8]: lack this attribute
